In article PMC9686568, “Novel Alligator Cathelicidin As-CATH8 Demonstrates Anti-Infective Activity against Clinically Relevant and Crocodylian Bacterial Pathogens” (Antibiotics, 2022):
Read-outs that look alike come from different tables or passages of the source.

What was measured:
[1] = system: linearized plasmid pET28a; assay: Agarose gel electrophoretic mobility shift assay (DNA binding)
Protocol: To investigate the DNA binding capacity of As-CATH8, vancomycin and polymyxin B, an agarose gel electrophoretic mobility shift assay was performed as previously described. Briefly, overnight cultures of E. coli BL21 Star cells harboring the pET28a plasmid were grown in LB supplemented with kanamycin (30 μg/mL). The pET28a plasmid was purified using the QIAprep Spin Miniprep Kit (QIAGEN Inc., Hilden, Germany) and linearized with the SmaI endonuclease (Thermofisher Scientific, Waltham, MA, USA). Linear pET28a was purified from an agarose gel using the QIAquick Gel Extraction Kit (QIAGEN Inc., Hilden, Germany).
Twofold decreasing amounts of As-CATH8 or antibiotics were incubated for 1 h at room temperature with 100 ng of linear pET28a in 10 μL of binding buffer (5% glycerol, 10 mM Tris-HCl pH 8.0, 1 mM EDTA, 1 mM DTT, 20 mM KCl and 50 μg/mL BSA). After this, 2 μL of 6× DNA Loading Dye (Thermofisher Scientific, Waltham, MA, USA) was added and the mixture was loaded onto a 1% agarose gel in TAE buffer containing SYBR Safe (Thermofisher Scientific, Waltham, MA, USA). The gel was run at 100 V for 1 h and the GeneRuler 1 kb DNA ladder (Thermofisher Scientific, Waltham, MA, USA) was used as a molecular weight marker. Finally, the gel was imaged on a ChemiDoc Touch Imaging System (BioRad Laboratories, Montreal, QC, Canada).

[2] = system: S. aureus SAP0017 biofilms; assay: Biofilm-killing assay; format: cell-based; details: S. aureus 24 h biofilms, 64 × MIC
Protocol: (§1) Biofilm-killing assays were set up like the biofilm inhibition assays previously described. […] Plates were incubated at 37 °C and bacterial biomass was scraped out of the wells with cotton swabs at 0, 0.5, 1, 2 and 20 h after treatment. Cotton tips were placed in 1 mL of LB and sonicated for 5 min, and bacterial numbers were determined by serial dilution and plating on LB agar.

[3] = system: S. aureus SAP0017 cytoplasmic membrane; assay: Membrane depolarization (DiSC3(5)) and permeabilization (PI) assay with CFU enumeration; format: cell-based; details: S. aureus planktonic cells, 1 h treatment
[4] = system: S. aureus; assay: MIC, broth microdilution in MHB; format: cell-based
Protocol: (§2) The following bacterial pathogens were used in this study: S. enterica subsp. enterica serovar Typhimurium ATCC 14028, E. coli O157:H7 [83], the clinical isolates S. aureus SAP0017 [84] and USA300 LAC [85], E. faecium #1-1 [85], A. baumannii Ab5075 [85] and E. cloacae 218R1 [85], as well as P. aeruginosa PAO1 [34], P. vulgaris HSC7200-T2 (Hancock Lab strain collection) and K. pneumoniae KPLN49 [85].
(§3) Overnight cultures were grown in LB at 37 °C with shaking at 250 rpm, except for E. faecium, which was grown in BHI medium.
(§4) The antimicrobial activity of the crocCATHs was evaluated with the broth microdilution method as described previously. MIC was defined as the first peptide or antibiotic concentration without visible bacterial growth. Reported values are the statistical mode of at least three independent experiments.

[5] = system: E. faecium; assay: MIC, broth microdilution in MHB; format: cell-based, E. faecium #1-1
Protocol: as §2, §3, §4

[6] = cited from earlier work
Excerpt: It is well-known that HDPs can interact with multiple extracellular and intracellular targets to exert their antimicrobial and antibiofilm effects. […] Although it seems likely that compromising the integrity of the membrane is a key component of the killing mechanism of As-CATH8, this may not always be a fatal event and additional or alternative activities might also play a significant role. Two main elements support this idea: first, maxim ...

[7] = system: P. aeruginosa; assay: MIC, broth microdilution in MHB; format: cell-based, P. aeruginosa PAO1
Protocol: as §2, §3, §4

[8] = system: E. cloacae; format: cell-based, E. cloacae 218R1; details: E. cloacae, microdilution in MHB
Protocol: as §2, §3, §4

[9] = system: S. Typhimurium; format: cell-based, S. enterica subsp. enterica serovar Typhimurium ATCC 14028; details: S. Typhimurium, microdilution in MHB
Protocol: as §2, §3, §4

[10] = system: K. pneumoniae; assay: MIC, broth microdilution in MHB; format: cell-based, K. pneumoniae KPLN49
Protocol: as §2, §3, §4

[11] = system: A. baumannii cytoplasmic membrane; assay: Membrane depolarization (DiSC3(5)) and permeabilization (PI) assay with CFU enumeration; format: cell-based; details: A. baumannii planktonic cells, 1 h treatment
Protocol: The cytoplasmic membrane depolarization and permeabilization activities of As-CATH8 compared to those of antibiotics (vancomycin or polymyxin B) were assessed against S. aureus SAP0017 and A. baumannii using the membrane-potential sensitive dye DiSC3(5) and the cell viability dye PI [36]. The membrane-permeabilizing peptide mastoparan was included as a positive control and water served as a negative (untreated) control.
Briefly, after growth in LB, mid-log phase bacteria were centrifuged and washed twice with 5 mM HEPES buffer supplemented with 20 mM glucose (HEPES-Gluc). Cell density was adjusted to ~10^7 CFU/mL in (HEPES-Gluc) supplemented with 0.1 M KCl. […] After incubation, 190 μL/well of the cultures were added to black opaque 96-well plates (Corning Inc.) and pre-treatment fluorescence was monitored every 2 min for a total of 10 min using a Synergy H1 Hybrid Multi-Mode Reader (BioTek, Winooski, VT, USA). […] After assessing that fluorescence values remained stable, bacteria were treated with 10 μL/well of peptide, antibiotic or water. Fluorescence was quantified 1 h after treatment under the same conditions and represented as a function of peptide concentration, subtracting the background of untreated cells.
To assess bacterial survival after treatment, supernatants from the fluorescence assays were serial diluted and plated for CFU enumeration. […]

[12] = system: A. baumannii; assay: MIC, broth microdilution in MHB; format: cell-based, A. baumannii Ab5075
Protocol: as §2, §3, §4

[13] = system: A. baumannii biofilms; assay: Biofilm-killing assay; format: cell-based; details: A. baumannii 24 h biofilms, 10% TSB + 0.1% glucose, 64 × MIC
Protocol: as §1

[14] = system: E. coli; format: cell-based, E. coli O157:H7; details: microdilution in MHB
Protocol: as §2, §3, §4

[15] = system: planktonic A. baumannii; assay: Planktonic time-kill assay; format: cell-based; details: ~5 × 10^5 CFU/mL in MHB, at the MIC, 37 °C
Protocol: The bactericidal activity of As-CATH8 and antibiotics was evaluated against planktonic S. aureus SAP0017 and A. baumannii cells under similar conditions to those used in the antimicrobial assays. Bacteria were grown overnight in LB media and diluted to ~5 × 10^5 CFU/mL in MHB. […] Samples were taken at 0, 0.5, 1, 2 and 20 h after treatment and CFU counts determined by serial dilution and plating on LB agar.

[16] = system: P. vulgaris; format: cell-based, P. vulgaris HSC7200-T2; details: microdilution in MHB
Protocol: as §2, §3, §4

[17] = first concentration without visible growth, mode of at least three independent experiments

Which “Capacity for binding to DNA, result in words” value [1] does the source give for `CN[C@H](CC(C)C)C(=O)N[C@H]1C(=O)N[C@@H](CC(N)=O)C(=O)N[C@H]2C(=O)N[C@H]3C(=O)N[C@H](C(=O)N[C@H](C(=O)O)c4cc(O)cc(O)c4-c4cc3ccc4O)[C@H](O)c3ccc(c(Cl)c3)Oc3cc2cc(c3O[C@@H]2O[C@H](CO)[C@@H](O)[C@H](O)[C@H]2O[C@H]2C[C@](C)(N)[C@H](O)[C@H](C)O2)Oc2ccc(cc2Cl)[C@H]1O` [Vancomycin, vancomycin] here?
The value was “no”.

And the “Effect on biofilms at 2 h, result in words” value ([2]; 2 h time point)?
The value was “modest effect”.

And the “Effect on biofilms after 20 h, result in words” value ([2]; 20 h of treatment)?
The value was “potent activity”.

And the “Membrane depolarization (DiSC3(5) fluorescence) and permeabilization (PI fluorescence), result in words” value [3]?
The value was “almost no effect”.

What about the MIC ([4]; Staphylococcus aureus, first concentration without visible growth, mode of at least three independent experiments) of the same compound?
The MIC was 0.5 µM.

What about the MIC ([4]; Staphylococcus aureus, value in brackets of Table S4) of the same compound?
Its MIC is 0.7 µg/mL.

What about the MIC [4, 17] of the same compound?
Its MIC is 0.5 µM.

What about the MIC ([5]; Enterococcus faecium, first concentration without visible growth, mode of at least three independent experiments) of the same compound?
Its MIC is over 64 µM.

What about the MIC ([5]; Enterococcus faecium, value in brackets of Table S4) of the same compound?
Its MIC is over 93 µg/mL.

What about the MIC [5, 17] of the same compound?
Its MIC is over 64 µM.

And the Net charge [6]?
The Net charge was “+1”.

With polymyxin B as the compound, how does the “Capacity for binding to DNA, result in words” value [1] read?
The value was “weak”.

And the MIC [7, 17]?
The MIC was 0.5 µM.

And the MIC ([7]; value in brackets of Table S4)?
The MIC was 0.6 µg/mL.

What about the MIC [8, 17] of the same compound?
Its MIC is 0.5 µM.

And the MIC ([8]; value in brackets of Table S4)?
The MIC was 0.6 µg/mL.

And the MIC [9, 17]?
Its MIC is 1 µM.

What about the MIC ([9]; value in brackets of Table S4) of the same compound?
The MIC was 1.2 µg/mL.

And the MIC [10, 17]?
Its MIC is 0.5 µM.

What about the MIC ([10]; value in brackets of Table S4) of the same compound?
Its MIC is 0.6 µg/mL.

What about the “Membrane depolarization (DiSC3(5) fluorescence) and permeabilization (PI fluorescence), result in words” value [11] of the same compound?
The value was “almost no effect”.

And the MIC [12, 17]?
Its MIC is 0.5 µM.

And the MIC ([12]; value in brackets of Table S4)?
The MIC was 0.6 µg/mL.

What about the “Time to complete eradication of biofilms” value [13] of the same compound?
The value was 20 h.

And the MIC [14, 17]?
Its MIC is 0.5 µM.

And the MIC ([14]; value in brackets of Table S4)?
Its MIC is 0.6 µg/mL.

And the “Time to complete killing of planktonic cells” value [15]?
Its value is “up to 20 h”.

What about the MIC [16, 17] of the same compound?
Its MIC is over 64 µM.

And the MIC ([16]; value in brackets of Table S4)?
The MIC was over 77 µg/mL.

What about the Net charge [6] of the same compound?
Its Net charge is “+5”.
